For the first assay, the target named is T1, Adenosylhomocysteinase (Homo sapiens, UniProt P23526).
T1 sequence (P23526 whole entry): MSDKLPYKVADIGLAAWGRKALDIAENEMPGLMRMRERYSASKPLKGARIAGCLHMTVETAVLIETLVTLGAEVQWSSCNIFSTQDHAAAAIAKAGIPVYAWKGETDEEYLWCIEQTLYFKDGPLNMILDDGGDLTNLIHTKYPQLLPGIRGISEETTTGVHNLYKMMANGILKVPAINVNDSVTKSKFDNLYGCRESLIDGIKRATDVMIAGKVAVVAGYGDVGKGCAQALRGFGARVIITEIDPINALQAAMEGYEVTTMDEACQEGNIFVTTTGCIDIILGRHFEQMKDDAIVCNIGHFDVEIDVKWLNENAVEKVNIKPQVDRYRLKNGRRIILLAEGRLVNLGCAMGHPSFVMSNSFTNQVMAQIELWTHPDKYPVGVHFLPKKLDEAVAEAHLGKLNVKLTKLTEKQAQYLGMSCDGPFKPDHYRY
Test: not given
Settings: not given; call rule not given here
Adenosylhomocysteinase (Mus musculus, UniProt P50247), sequence (P50247 whole entry): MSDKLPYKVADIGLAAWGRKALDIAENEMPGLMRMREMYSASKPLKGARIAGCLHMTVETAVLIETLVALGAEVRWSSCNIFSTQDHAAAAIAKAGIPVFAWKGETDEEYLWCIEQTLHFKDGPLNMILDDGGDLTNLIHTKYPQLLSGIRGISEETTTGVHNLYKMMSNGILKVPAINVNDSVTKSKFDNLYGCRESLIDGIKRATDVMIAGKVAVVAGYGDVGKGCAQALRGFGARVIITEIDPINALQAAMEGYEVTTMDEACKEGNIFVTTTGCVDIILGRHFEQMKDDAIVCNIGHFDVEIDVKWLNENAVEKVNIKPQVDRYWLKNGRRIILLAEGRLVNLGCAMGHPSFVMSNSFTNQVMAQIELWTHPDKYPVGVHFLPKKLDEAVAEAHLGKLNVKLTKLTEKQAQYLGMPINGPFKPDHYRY
Take `Nc1nccc2c1ncn2C/C=C\[C@@H](O)CO`: the IC50 (as a rule, the concentration that inhibits the measured activity by half) was “Not Active”.

Regarding `C/C(=C/Cn1cnc2c(N)ncnc21)CO`, the IC50 entry is reported as “Not Active”.

As for `Nc1ncnc2c1ncn2[C@@H]1C=C(CO)[C@@H](O)[C@H]1O` [NEOPLANOCIN A], the concentration for half-maximal inhibition (IC50) entry is listed as “Not Active”.

Consider `Nc1nccc2c1ncn2C/C=C\CO`, for which the IC50 entry is recorded as “Not Active”.

As to `C/C(=C\Cn1cnc2c(N)ncnc21)CO`, the concentration for half-maximal inhibition (IC50) entry is “Not Active”.

With `Nc1nccc2c1ncn2CC=C(CO)CO`, the IC50 result is recorded as “Not Active”.

As to `Nc1ncnc2c1ncn2C/C=C\[C@@H](O)CO`, the IC50 result was “Not Active”.

On to `Nc1nccc2c1ncn2CC#CCO`, for which the half-maximal inhibitory concentration (IC50) result is “Not Active”.

Regarding `Nc1ncnc2c1ncn2C/C=C\CO`, the IC50 entry is “Not Active”.

In the case of `Nc1ncnc2c1ncn2CC=C(CO)CO`, the IC50 entry is on record as “Not Active”.

For `Nc1ncnc2c1ncn2C/C=C(/CO)[C@@H](O)CO.Nc1ncnc2c1ncn2C/C=C(\CO)[C@@H](O)CO`, the IC50 entry was “Not Active”.

Consider `Nc1ncnc2c1ncn2C/C=C/CO`, for which the IC50 entry is listed as “Not Active”.

The target in the next assay is T1, Adenosylhomocysteinase.
Test: not given
Settings: not given
The source holds these as a separate data set.
`Nc1nccc2c1ncn2C/C=C/CO`: the Ki entry is “Not Active”.

Consider `Nc1ncnc2c1ncn2C/C=C/C(O)CO` (configuration not stated), for which the Ki entry is listed as “Not Active”.

For the compound `CC(C)=CCn1cnc2c(N)ncnc21`, the Ki result is recorded as “Not Active”.

As for `Nc1ncnc2c1ncn2CC#CCO`, the Ki result was “Not Active”.

The subject of the next assay is Vaccinia virus.
Test: not given
The conditions noted are these: l929.
In turn, `Nc1nccc2c1ncn2C/C=C\[C@@H](O)CO` yielded an IC50 of 70 µM. This counts as double-digit micromolar.

Take `C/C(=C/Cn1cnc2c(N)ncnc21)CO`: the IC50 was found to be 220 µM. Against the preceding compound, the IC50 is about 3.1-fold higher.

Regarding `Nc1ncnc2c1ncn2[C@@H]1C=C(CO)[C@@H](O)[C@H]1O` [NEOPLANOCIN A], the half-maximal inhibitory concentration (IC50) came out at 0.08 µM. Against the preceding compound, the IC50 is about 2800-fold lower.

`Nc1nccc2c1ncn2C/C=C\CO` returned a half-inhibitory concentration (IC50) of 300 µM.

Take `C/C(=C\Cn1cnc2c(N)ncnc21)CO`: half-maximal inhibition (IC50) required 300 µM.

Take `Nc1nccc2c1ncn2CC=C(CO)CO`: the 50% inhibitory concentration (IC50) stood at 500 µM. This IC50 lies about 1.7-fold higher than the previous one.

For `Nc1nccc2c1ncn2C/C=C/CO`, half-maximal inhibition (IC50) required 40 µM.

`Nc1ncnc2c1ncn2C/C=C/C(O)CO` (configuration not stated): 250 µM corresponded to half-maximal inhibition (IC50).

Take `Nc1ncnc2c1ncn2C/C=C\[C@@H](O)CO`: the 50% inhibitory concentration (IC50) stood at 100 µM.

`CC(C)=CCn1cnc2c(N)ncnc21`: half-maximal inhibition (IC50) was put at 60 µM. This IC50 is about 1.7-fold lower than that of the compound before.

In turn, `Nc1nccc2c1ncn2CC#CCO` came in with an IC50 of 300 µM.

The compound `Nc1ncnc2c1ncn2C/C=C\CO` registered an IC50 of 108 µM.

For the compound `Nc1ncnc2c1ncn2CC=C(CO)CO`, it took 700 µM to reach half-maximal inhibition (IC50).

As to `Nc1ncnc2c1ncn2C/C=C(/CO)[C@@H](O)CO.Nc1ncnc2c1ncn2C/C=C(\CO)[C@@H](O)CO`, the IC50 came out at 170 µM.

On to `Nc1ncnc2c1ncn2C/C=C/CO`, for which the IC50 came out at 109 µM. Compared with the last compound, the IC50 is about 1.6-fold lower.

Consider `Nc1ncnc2c1ncn2CC#CCO`, for which the IC50 is above 320 µM.

Another assay has as its target Adenosylhomocysteinase (Mus musculus, UniProt P50247). Kind of assay: biochemical.
Settings: not given
Consider `Nc1nccc2c1ncn2C/C=C\[C@@H](O)CO`, for which half-maximal inhibition (IC50) required 61 µM.

`C/C(=C/Cn1cnc2c(N)ncnc21)CO` displayed an IC50 of 200 µM.

Compound `Nc1ncnc2c1ncn2[C@@H]1C=C(CO)[C@@H](O)[C@H]1O` [NEOPLANOCIN A] displayed an IC50 of 0.05 µM.

As to `Nc1nccc2c1ncn2C/C=C\CO`, the IC50 is 200 µM.

Take `Nc1nccc2c1ncn2CC=C(CO)CO`: the IC50 is 110 µM.

In turn, `Nc1ncnc2c1ncn2C/C=C\[C@@H](O)CO` registered an IC50 of 100 µM.

Consider `Nc1nccc2c1ncn2CC#CCO`, for which the IC50 is 200 µM.

Turning to `Nc1ncnc2c1ncn2C/C=C\CO`, 145 µM corresponded to half-maximal inhibition (IC50).

In turn, `Nc1ncnc2c1ncn2CC=C(CO)CO` showed an IC50 of 65 µM. This IC50 is about 2.2-fold lower than that of the compound before.

`Nc1ncnc2c1ncn2C/C=C/CO` had a half-inhibitory concentration (IC50) of 230 µM.

The record behind these values is ChEMBL document CHEMBL1124198, “Potential inhibitors of S-adenosylmethionine-dependent methyltransferases. 11. Molecular dissections of neplanocin A as potential inhibitors of S-adenosylhomocysteine hydrolase” (J Med Chem, 1988).
